# Assay results taken from patent publication US9642833B2, “Vitamin C and vitamin K, and compositions thereof for treatment of osteolysis or prolongation of prosthetic implant” (IC-MEDTECH CORPORATION, priority 2009, dated 2017).
# Test system: HS68 fibroblasts
# Assay: MTT cytotoxicity against human dermal fibroblasts
# Type: cell-based
# Details: for VK3 CD50: in combination with Sodium L-Ascorbate; for CD50: vitamins alone
SMILES,"VK3 CD50 (ratio of vitamin C to vitamin K3 100, incubation 1 day)","VK3 CD50 (ratio of vitamin C to vitamin K3 100, incubation 2 days)","VK3 CD50 (ratio of vitamin C to vitamin K3 100, incubation 3 days)","VK3 CD50 (ratio of vitamin C to vitamin K3 200, incubation 1 day)","VK3 CD50 (ratio of vitamin C to vitamin K3 200, incubation 2 days)","VK3 CD50 (ratio of vitamin C to vitamin K3 200, incubation 3 days)",CD50 (incubation 1 day),CD50 (incubation 2 days),CD50 (incubation 3 days),"VC CD50 (in combination with VK3, ratio of vitamin C to vitamin K3 100, incubation 1 day)","VC CD50 (in combination with VK3, ratio of vitamin C to vitamin K3 100, incubation 2 days)","VC CD50 (in combination with VK3, ratio of vitamin C to vitamin K3 100, incubation 3 days)","VC CD50 (in combination with VK3, ratio of vitamin C to vitamin K3 200, incubation 1 day)","VC CD50 (in combination with VK3, ratio of vitamin C to vitamin K3 200, incubation 2 days)","VC CD50 (in combination with VK3, ratio of vitamin C to vitamin K3 200, incubation 3 days)"
"CC1=CC(=O)c2ccccc2C1=O [VK3, vitamin K3]",4.7 µM,4.7 µM,4.7 µM,2.3 µM,2.3 µM,2.0 µM,18.7 µM,19.0 µM,18.7 µM,,,,,,
"O=C1O[C@H]([C@@H](O)CO)C([O-])=C1O.[Na+] [Sodium L-Ascorbate, sodium L-ascorbate]",,,,,,,1468 µM,1245 µM,1185 µM,458 µM,471 µM,471 µM,466 µM,467 µM,397 µM
